How the values were obtained:
CCT8 = target: T1, CCT8 (Homo sapiens, UniProt P50990); test: ATPase profile (ATP acyl phosphate probe); type: binding; conditions: CCT8, SEQ ID NO: 56, ATP BS
T1 construct: to get the native cell lysate; host or cells: A375 cell lysate

SPG7 = target: T2, SPG7 (Homo sapiens, UniProt Q9UQ90); test: ATPase profile (ATP acyl phosphate probe); type: binding; conditions: SPG7, SEQ ID NO: 197, ATP BS
T2 construct: to get the native cell lysate; endogenous in cells; host or cells: A375 cell lysate

TTL = target: T3, TTL (Homo sapiens, UniProt Q8NG68); test: ATPase profile (ATP acyl phosphate probe); type: binding
T3 construct: to get the native cell lysate; endogenous in cells; host or cells: A375 cell lysate

ALDH16A1 = target: T4, ALDH16A1 (Homo sapiens, UniProt Q8IZ83); test: ATPase profile (ATP acyl phosphate probe); type: binding; conditions: ALDH16A1, SEQ ID NO: 38, ATP BS
T4 construct: to get the native cell lysate; host or cells: A375 cell lysate

COASY = target: T5, COASY (Homo sapiens, UniProt Q13057); test: ATPase profile (ATP acyl phosphate probe); type: binding
T5 construct: endogenous in cells; host or cells: A375 cell lysate

SMC1A = target: T6, SMC1A (Homo sapiens, UniProt Q14683); test: ATPase profile (ATP acyl phosphate probe); type: binding; conditions: SEQ ID NO: 193, ATP BS
T6 construct: to get the native cell lysate; endogenous in cells; host or cells: A375 cell lysate

DDX21 = target: T7, DDX21 (Homo sapiens, UniProt Q9NR30); test: ATPase profile (ATP acyl phosphate probe); type: binding; conditions: DDX21, SEQ ID NO: 67, ATP BS
T7 construct: endogenous in cells; host or cells: A375 cell lysate

PSMC1 = target: T8, PSMC1 (Homo sapiens, UniProt P62191); test: ATPase profile (ATP acyl phosphate probe); type: binding; conditions: PSMC1, SEQ ID NO: 173, ATP BS
T8 construct: endogenous in cells; host or cells: A375 cell lysate

ACTR2 = target: T9, ACTR2 (Homo sapiens, UniProt P61160); test: ATPase profile (ATP acyl phosphate probe); type: binding
T9 construct: to get the native cell lysate; host or cells: A375 cell lysate

PMVK = target: T10, PMVK (Homo sapiens, UniProt Q15126); test: ATPase profile (ATP acyl phosphate probe); type: binding; conditions: SEQ ID NO: 163, ATP BS
T10 construct: to get the native cell lysate; endogenous in cells; host or cells: A375 cell lysate

PCCA = target: T11, PCCA (Homo sapiens, UniProt P05165); test: ATPase profile (ATP acyl phosphate probe); type: binding
T11 construct: to get the native cell lysate; endogenous in cells; host or cells: A375

RFC4 = target: T12, RFC4 (Homo sapiens, UniProt P35249); test: ATPase profile (ATP acyl phosphate probe); type: binding; conditions: RFC4, SEQ ID NO: 185, ATP BS
T12 construct: to get the native cell lysate; endogenous in cells; host or cells: A375 cell lysate

[1] = test system: Mi-2β target gene expression in B16F10 cells; test: RT-qPCR of Mi-2β target genes in B16F10 cells treated with Z36-MP5; type: cell-based, mouse; conditions: 25 μM, 24 hours
Description: Z36-MP5 was chosen for further validation and experimental therapeutics in vivo. […] To investigate its cellular inhibitory activity, B16-F10 cells were treated with Z36-MP5 at concentrations ranging from 5 to 100 μM, and the activation of Mi-2β target genes measured by RT-qPCR. Z36-MP5 at 25 μM induced Mi-2β target gene expression including Cxc9, Cxcl10 and Irf1 (FIG. 11c) in B16F10 cells. We also performed the co-culture assays of B16F10 cells with activated Pmel-1 T cells to identify whether Z36-MP5 stimulation can activate T cell mediated cytotoxicity. […] In addition, the pharmacokinetic properties of Z36-MP5 in Sprague-Dawley rats with administration of intraperitoneal injection dose of 1.0 mg/kg.
The total RNA was extracted with QIAGEN RNeasy kit […] for cDNA synthesis with SuperScript II Reverse Transcriptase (Invitrogen). In total, 40 ng cDNA was used for quantitative real-time PCR amplification by TaqMan Gene Expression Master Mix (Thermo Fisher Scientific). The relative transcript levels were normalized with GAPDH expression. The data were calculated with the comparative CT method.

MMAB = target: T13, MMAB (Homo sapiens, UniProt Q96EY8); test: ATPase profile (ATP acyl phosphate probe); type: binding; conditions: SEQ ID NO: 124, ATP BS
T13 construct: to get the native cell lysate; endogenous in cells; host or cells: A375

YME1L1 = target: T14, YME1L1 (Homo sapiens, UniProt Q96TA2); test: ATPase profile (ATP acyl phosphate probe); type: binding; conditions: YME1L1, SEQ ID NO: 233, ATP BS
T14 construct: to get the native cell lysate; endogenous in cells; host or cells: A375 cell lysate

HARS = target: T15, HARS (Homo sapiens, UniProt P12081); test: ATPase profile (ATP acyl phosphate probe); type: binding; conditions: SEQ ID NO: 89, ATP BS
T15 construct: endogenous in cells; host or cells: A375 cell lysate

ABCC2 = target: T16, ABCC2 (Homo sapiens, UniProt Q92887); test: ATPase profile (ATP acyl phosphate probe); type: binding; conditions: ABCC2, SEQ ID NO: 8, ATP BS
T16 construct: to get the native cell lysate; host or cells: A375 cell lysate

HSP90AA = target: T17, HSP90AA (Homo sapiens, UniProt P07900); test: ATPase profile (ATP acyl phosphate probe); type: binding; conditions: SEQ ID NO: 95, ATP BS
T17 construct: to get the native cell lysate; endogenous in cells; host or cells: A375

TOP2A, TOP2B = test: ATPase profile (ATP acyl phosphate probe); type: binding; conditions: SEQ ID NO: 202, ATP BS
PFAS = target: T18, PFAS (Homo sapiens, UniProt O15067); test: ATPase profile (ATP acyl phosphate probe); type: binding; conditions: SEQ ID NO: 157, ATP BS
T18 construct: to get the native cell lysate; endogenous in cells; host or cells: A375 cell lysate

HSPA5 = target: T19, HSPA5 (Homo sapiens, UniProt P11021); test: ATPase profile (ATP acyl phosphate probe); type: binding
T19 construct: to get the native cell lysate; endogenous in cells; host or cells: A375

KARS = target: T20, KARS (Homo sapiens, UniProt Q15046); test: ATPase profile (ATP acyl phosphate probe); type: binding; conditions: SEQ ID NO: 112, ATP BS
T20 construct: to get the native cell lysate; endogenous in cells; host or cells: A375

APRT = target: T21, APRT (Homo sapiens, UniProt P07741); test: ATPase profile (ATP acyl phosphate probe); type: binding; conditions: SEQ ID NO: 40, ATP BS
T21 construct: to get the native cell lysate; host or cells: A375 cell lysate

PSMC3 = target: T22, PSMC3 (Homo sapiens, UniProt P17980); test: ATPase profile (ATP acyl phosphate probe); type: binding; conditions: PSMC3, SEQ ID NO: 175, ATP BS
T22 construct: to get the native cell lysate; endogenous in cells; host or cells: A375 cell lysate

GMPS = target: T23, GMPS (Homo sapiens, UniProt P49915); test: ATPase profile (ATP acyl phosphate probe); type: binding
T23 construct: endogenous in cells; host or cells: A375 cell lysate

HYOU1 = target: T24, HYOU1 (Homo sapiens, UniProt Q9Y4L1); test: ATPase profile (ATP acyl phosphate probe); type: binding
T24 construct: to get the native cell lysate; endogenous in cells; host or cells: A375
T24 sequence (Q9Y4L1 33-999): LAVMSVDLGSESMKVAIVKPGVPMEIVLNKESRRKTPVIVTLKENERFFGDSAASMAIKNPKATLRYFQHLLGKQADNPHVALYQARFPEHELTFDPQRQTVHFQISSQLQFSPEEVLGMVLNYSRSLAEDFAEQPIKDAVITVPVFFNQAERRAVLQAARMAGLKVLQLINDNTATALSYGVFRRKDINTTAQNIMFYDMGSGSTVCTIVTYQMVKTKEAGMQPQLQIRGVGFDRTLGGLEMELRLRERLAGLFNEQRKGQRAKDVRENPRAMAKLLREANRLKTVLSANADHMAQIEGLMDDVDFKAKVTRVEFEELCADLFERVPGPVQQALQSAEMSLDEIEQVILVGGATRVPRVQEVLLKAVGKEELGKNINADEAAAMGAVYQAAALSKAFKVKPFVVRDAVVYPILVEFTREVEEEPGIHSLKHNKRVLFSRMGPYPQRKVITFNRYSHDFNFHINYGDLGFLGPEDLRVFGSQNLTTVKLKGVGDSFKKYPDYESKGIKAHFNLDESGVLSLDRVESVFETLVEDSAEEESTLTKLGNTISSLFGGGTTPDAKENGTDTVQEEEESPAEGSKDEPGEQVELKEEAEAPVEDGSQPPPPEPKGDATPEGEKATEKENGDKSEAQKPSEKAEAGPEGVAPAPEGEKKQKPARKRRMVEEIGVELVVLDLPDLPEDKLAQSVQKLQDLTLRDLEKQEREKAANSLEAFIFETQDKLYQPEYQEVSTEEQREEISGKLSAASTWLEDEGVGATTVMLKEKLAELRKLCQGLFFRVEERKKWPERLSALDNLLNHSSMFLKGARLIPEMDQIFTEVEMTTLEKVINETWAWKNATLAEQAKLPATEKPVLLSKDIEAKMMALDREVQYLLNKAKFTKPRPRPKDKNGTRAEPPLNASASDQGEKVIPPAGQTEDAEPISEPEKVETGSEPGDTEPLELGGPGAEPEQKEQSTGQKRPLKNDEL

T3 sequence (Q8NG68 whole entry): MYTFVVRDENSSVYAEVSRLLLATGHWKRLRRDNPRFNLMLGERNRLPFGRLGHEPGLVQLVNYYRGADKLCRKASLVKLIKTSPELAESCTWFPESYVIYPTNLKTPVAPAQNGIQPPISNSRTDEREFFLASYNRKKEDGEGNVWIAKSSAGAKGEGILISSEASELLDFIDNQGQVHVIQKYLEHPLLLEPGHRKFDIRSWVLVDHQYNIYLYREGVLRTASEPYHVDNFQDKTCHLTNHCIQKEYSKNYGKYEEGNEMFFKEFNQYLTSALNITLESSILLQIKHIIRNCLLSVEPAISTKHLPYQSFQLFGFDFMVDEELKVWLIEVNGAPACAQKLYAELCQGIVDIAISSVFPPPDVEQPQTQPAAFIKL
T5 sequence (Q13057 whole entry): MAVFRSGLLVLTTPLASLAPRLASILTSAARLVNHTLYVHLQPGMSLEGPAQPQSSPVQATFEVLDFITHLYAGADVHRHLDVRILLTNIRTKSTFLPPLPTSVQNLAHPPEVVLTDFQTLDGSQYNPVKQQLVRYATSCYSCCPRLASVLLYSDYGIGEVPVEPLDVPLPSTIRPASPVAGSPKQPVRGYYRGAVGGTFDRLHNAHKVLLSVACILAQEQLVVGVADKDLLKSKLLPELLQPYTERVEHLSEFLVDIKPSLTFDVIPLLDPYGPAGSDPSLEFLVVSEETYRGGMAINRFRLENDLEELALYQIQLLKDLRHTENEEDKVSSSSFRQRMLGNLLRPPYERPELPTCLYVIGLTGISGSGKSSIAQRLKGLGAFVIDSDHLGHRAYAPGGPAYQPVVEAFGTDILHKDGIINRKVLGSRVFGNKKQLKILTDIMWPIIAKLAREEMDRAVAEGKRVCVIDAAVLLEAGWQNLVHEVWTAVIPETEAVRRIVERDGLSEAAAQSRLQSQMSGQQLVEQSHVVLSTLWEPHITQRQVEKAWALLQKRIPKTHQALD
T11 sequence (P05165 53-728): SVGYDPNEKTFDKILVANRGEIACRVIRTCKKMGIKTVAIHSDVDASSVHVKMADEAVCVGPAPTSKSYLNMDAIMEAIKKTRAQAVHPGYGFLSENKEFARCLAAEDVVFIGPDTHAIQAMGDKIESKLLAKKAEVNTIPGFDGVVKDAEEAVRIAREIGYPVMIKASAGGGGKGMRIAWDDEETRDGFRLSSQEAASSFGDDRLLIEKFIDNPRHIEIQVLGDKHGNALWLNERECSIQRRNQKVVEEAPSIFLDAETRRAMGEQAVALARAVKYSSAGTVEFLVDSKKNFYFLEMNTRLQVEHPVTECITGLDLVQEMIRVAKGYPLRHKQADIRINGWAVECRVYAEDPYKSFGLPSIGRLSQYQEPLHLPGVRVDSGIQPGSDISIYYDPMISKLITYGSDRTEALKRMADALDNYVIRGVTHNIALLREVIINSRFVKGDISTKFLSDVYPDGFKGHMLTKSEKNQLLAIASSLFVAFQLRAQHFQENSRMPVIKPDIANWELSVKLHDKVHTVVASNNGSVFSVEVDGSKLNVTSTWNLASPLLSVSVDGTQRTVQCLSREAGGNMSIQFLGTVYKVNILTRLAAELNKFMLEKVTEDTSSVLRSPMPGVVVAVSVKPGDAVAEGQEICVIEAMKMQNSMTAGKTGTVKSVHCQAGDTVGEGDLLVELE
T11 sequence (P05166 29-539 partner): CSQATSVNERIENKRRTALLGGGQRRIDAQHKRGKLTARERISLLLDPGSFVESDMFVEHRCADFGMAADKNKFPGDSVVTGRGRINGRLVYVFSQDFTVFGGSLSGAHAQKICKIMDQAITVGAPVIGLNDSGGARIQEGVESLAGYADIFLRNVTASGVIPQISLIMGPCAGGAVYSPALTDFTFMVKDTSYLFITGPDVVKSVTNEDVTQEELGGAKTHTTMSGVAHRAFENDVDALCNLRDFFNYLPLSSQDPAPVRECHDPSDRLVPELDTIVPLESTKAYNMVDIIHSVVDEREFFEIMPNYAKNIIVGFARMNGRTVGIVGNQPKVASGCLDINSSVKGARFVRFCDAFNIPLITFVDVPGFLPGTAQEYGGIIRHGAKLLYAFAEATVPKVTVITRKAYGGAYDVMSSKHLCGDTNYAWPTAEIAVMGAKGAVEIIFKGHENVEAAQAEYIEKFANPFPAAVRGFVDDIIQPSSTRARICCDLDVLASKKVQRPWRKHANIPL
T23 sequence (P49915 whole entry): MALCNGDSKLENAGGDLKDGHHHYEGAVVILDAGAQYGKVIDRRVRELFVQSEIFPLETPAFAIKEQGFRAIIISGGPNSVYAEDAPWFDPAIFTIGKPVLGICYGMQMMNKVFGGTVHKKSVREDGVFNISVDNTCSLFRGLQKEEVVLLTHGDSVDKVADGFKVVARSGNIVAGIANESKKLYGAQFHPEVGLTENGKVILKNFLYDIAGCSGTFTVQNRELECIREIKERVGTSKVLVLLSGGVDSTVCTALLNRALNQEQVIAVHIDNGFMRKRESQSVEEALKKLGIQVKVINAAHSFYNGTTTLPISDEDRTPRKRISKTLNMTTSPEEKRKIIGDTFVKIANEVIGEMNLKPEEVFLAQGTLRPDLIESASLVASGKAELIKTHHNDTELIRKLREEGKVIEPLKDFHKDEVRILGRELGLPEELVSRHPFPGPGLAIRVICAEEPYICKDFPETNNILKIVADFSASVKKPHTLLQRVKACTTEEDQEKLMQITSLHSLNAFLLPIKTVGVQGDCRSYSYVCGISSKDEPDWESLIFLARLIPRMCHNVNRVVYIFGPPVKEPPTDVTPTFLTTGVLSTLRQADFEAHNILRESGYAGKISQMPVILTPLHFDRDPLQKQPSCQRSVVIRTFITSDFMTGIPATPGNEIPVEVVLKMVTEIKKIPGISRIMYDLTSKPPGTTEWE
T19 sequence (P11021 19-654): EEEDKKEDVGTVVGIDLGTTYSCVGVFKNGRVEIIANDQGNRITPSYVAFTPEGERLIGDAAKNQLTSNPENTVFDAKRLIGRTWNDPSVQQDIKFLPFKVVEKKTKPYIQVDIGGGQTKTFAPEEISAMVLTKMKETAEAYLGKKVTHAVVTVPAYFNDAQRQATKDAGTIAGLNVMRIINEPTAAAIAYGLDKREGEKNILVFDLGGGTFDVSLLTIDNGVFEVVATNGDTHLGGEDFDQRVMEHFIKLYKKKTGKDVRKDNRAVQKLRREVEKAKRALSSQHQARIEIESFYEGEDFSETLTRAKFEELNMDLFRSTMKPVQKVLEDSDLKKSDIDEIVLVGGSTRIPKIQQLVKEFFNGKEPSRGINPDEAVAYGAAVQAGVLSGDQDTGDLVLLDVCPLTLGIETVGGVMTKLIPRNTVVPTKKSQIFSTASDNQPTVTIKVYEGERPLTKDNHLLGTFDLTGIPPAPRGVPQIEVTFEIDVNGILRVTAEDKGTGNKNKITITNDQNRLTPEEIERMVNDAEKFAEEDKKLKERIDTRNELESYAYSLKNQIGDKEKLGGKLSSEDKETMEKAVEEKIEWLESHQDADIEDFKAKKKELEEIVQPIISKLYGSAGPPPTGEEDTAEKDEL
T15 sequence (P12081 whole entry): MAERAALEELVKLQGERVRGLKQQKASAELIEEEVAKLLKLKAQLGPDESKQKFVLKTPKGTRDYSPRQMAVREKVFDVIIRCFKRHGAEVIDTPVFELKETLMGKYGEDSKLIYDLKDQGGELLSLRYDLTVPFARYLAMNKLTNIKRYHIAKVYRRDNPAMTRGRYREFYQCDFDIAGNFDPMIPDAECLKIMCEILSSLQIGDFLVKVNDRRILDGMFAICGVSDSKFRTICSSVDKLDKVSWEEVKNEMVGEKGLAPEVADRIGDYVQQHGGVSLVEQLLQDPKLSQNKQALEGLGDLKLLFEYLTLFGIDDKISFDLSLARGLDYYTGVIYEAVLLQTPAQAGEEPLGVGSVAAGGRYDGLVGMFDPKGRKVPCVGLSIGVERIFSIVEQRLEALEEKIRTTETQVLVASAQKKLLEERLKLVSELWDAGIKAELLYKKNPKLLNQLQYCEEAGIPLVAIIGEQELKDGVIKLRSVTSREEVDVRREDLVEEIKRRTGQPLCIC

Cn1c(=O)[nH]c2ccc(-c3cccc(C(=O)NC4CCn5ccnc5C4)c3)cc21 (stereo not drawn) [Z36-MP5, 3-(3-methyl-2-oxo-2,3-dihydro-1H-benzo[d]imidazol-5-yl)-N-(5,6,7,8-tetrahydroimidazo[1,2-a]pyridin-7-yl)benzamide]
Inhibition (%) by 1 μM Z36-MP5 (CCT8): 9.18% | Inhibition (%) by 1 μM Z36-MP5 (SPG7): 0.12% | Inhibition (%) by 1 μM Z36-MP5 (TTL; SEQ ID NO: 213, ATP BS): 10.59% | Inhibition (%) by 1 μM Z36-MP5 (TTL; SEQ ID NO: 214, ATP BS): −14.46% | Inhibition (%) by 1 μM Z36-MP5 (ALDH16A1): −1.13% | Inhibition (%) by 1 μM Z36-MP5 (COASY; SEQ ID NO: 62, ATP BS): −3.39% | Inhibition (%) by 1 μM Z36-MP5 (COASY; SEQ ID NO: 63, ATP BS): 23.55% | Inhibition (%) by 1 μM Z36-MP5 (SMC1A): 5.67% | Inhibition (%) by 1 μM Z36-MP5 (DDX21): 3.05% | Inhibition (%) by 1 μM Z36-MP5 (PSMC1): −7.42% | Inhibition (%) by 1 μM Z36-MP5 (ACTR2; ACTR2, SEQ ID NO: 25, ATP BS): −16.82% | Inhibition (%) by 1 μM Z36-MP5 (ACTR2; ACTR2, SEQ ID NO: 26, ATP BS): −2.20% | Inhibition (%) by 1 μM Z36-MP5 (PMVK): −5.60% | Inhibition (%) by 1 μM Z36-MP5 (PCCA; SEQ ID NO: 153, ATP BS): −5.50% | Inhibition (%) by 1 μM Z36-MP5 (PCCA; SEQ ID NO: 154, ATP BS): −10.70% | Inhibition (%) by 1 μM Z36-MP5 (RFC4): −6.66% | Mi-2β target gene expression including Cxc9, Cxcl10 and Irf1 [1]: induced | Inhibition (%) by 1 μM Z36-MP5 (MMAB): −4.08% | Inhibition (%) by 1 μM Z36-MP5 (YME1L1): −10.37% | Inhibition (%) by 1 μM Z36-MP5 (HARS): 4.68% | Inhibition (%) by 1 μM Z36-MP5 (ABCC2): 4.09% | Inhibition (%) by 1 μM Z36-MP5 (HSP90AA): −1.29% | Inhibition (%) by 1 μM Z36-MP5 (TOP2A, TOP2B): 11.93% | Inhibition (%) by 1 μM Z36-MP5 (PFAS): −4.58% | Inhibition (%) by 1 μM Z36-MP5 (HSPA5; HSPA5, SEQ ID NO: 104, ATP BS): −16.08% | Inhibition (%) by 1 μM Z36-MP5 (HSPA5; HSPA5, SEQ ID NO: 105, ATP BS): −7.84% | Inhibition (%) by 1 μM Z36-MP5 (KARS): 2.22% | Inhibition (%) by 1 μM Z36-MP5 (APRT): 0.39% | Inhibition (%) by 1 μM Z36-MP5 (PSMC3): 5.71% | Inhibition (%) by 1 μM Z36-MP5 (GMPS; SEQ ID NO: 85, labeling site Other): −13.99% | Inhibition (%) by 1 μM Z36-MP5 (GMPS; SEQ ID NO: 86, labeling site Other): 14.54% | Inhibition (%) by 1 μM Z36-MP5 (HYOU1; HYOU1, SEQ ID NO: 109, ATP BS): −13.34% | Inhibition (%) by 1 μM Z36-MP5 (HYOU1; HYOU1, SEQ ID NO: 110, ATP BS): −6.78%
